In publication PMC11506774 (Biomolecules, 2024):
≈ marks a conversion by molar mass, not a printed value.

What was measured:
RD cells = assay: Cytotoxicity assay (CCK-8); type: cell-based; settings: 24 h, 2-fold dilutions from 1 mg/mL, CCK-8, absorbance 450 nm, mean ± SD, at least two independent experiments
Procedure: RD cells at a density of 4 × 10^4/100 µL/well were seeded in 96-well plates 24 h prior to the cytotoxicity assay. The peptide P25 and its derivatives were reconstituted in DMSO to a concentration of 25 mg/mL and then diluted to 1 mg/mL in DMEM with 100 mM HEPES, from which 2-fold serial dilutions of the peptides were produced, starting with the same medium. DMSO diluted in the same medium served as the control. Fifty microliters of diluted peptides and the control medium were added to the cells and cultured for 24 h. After cultivation, 5 µL of the enhanced CCK-8 reagent (Beyotime, C0043, Shanghai, China) were added directly to each well of the cell culture and cultured for an additional hour. Absorbance at 450 nm was detected using a TECAN Infinite 200 PRO instrument. The cell viability was normalized to the control, and the concentration at which a peptide inhibited 50% of the cell viability (CC50) was calculated using GraphPad Prism 9.5.1 (GraphPad software, San Diego, CA, USA).

EV-A71/SZK2021 = settings: co-treatment, RD cells, 100 TCID50/50 µL, 24 h, crystal violet; mean ± SD, at least two independent experiments; NO = no inhibition observed
Echo 30/WZ16 = settings: co-treatment, RD cells, 100 TCID50/50 µL, 24 h, crystal violet; mean ± SD, at least two independent experiments; >125 = protection less than 50% at 125 µg/mL; NO = no inhibition observed
Poliovirus 3/nOPV3 = settings: 24 h
EV-D68/BCH895A = settings: co-treatment, RD cells, 100 TCID50/50 µL, 24 h, crystal violet; mean ± SD, at least two independent experiments; >125 = protection less than 50% at 125 µg/mL; NO = no inhibition observed

What does the source list for CC[C@H](C)[C@H](NC(=O)[C@H](Cc1c[nH]cn1)NC(=O)[C@H](CCCCN)NC(=O)[C@@H]1CCCN1C(=O)[C@H](CCCCN)NC(=O)[C@H](CCSC)NC(=O)[C@H](Cc1ccc(O)cc1)NC(=O)[C@@H](NC(=O)[C@H](CCCNC(=N)N)NC(=O)[C@@H](NC(=O)[C@@H](NC(=O)[C@@H](NC(=O)[C@@H](NC(=O)[C@H](Cc1ccccc1)NC(=O)CN)[C@@H](C)O)C(C)C)[C@@H](C)O)C(C)C)C(C)C)C(=O)N[C@@H](CCCCN)C(=O)N[C@@H](C)C(=O)N[C@@H](Cc1c[nH]c2ccccc12)C(=O)N[C@@H](C)C(=O)O [Peptide P25]?
CC50 (RD cells): 256.43 ± 7.15 µg/mL (≈ 115 µM); IC50 of P25 at 6 h of pre-treatment (EV-A71/FY0805; 6 h): 3.9 µg/mL; IC50 (µg/mL) EV-A71 /FY0805 (EV-A71/FY0805; 24 h): 32.35 ± 7.23 µg/mL (≈ 14.5 µM); IC50 (µg/mL) EV-A71 /SZK2021 (EV-A71/SZK2021): 41.32 ± 8.46 µg/mL; IC50 (µg/mL) Echo 30 /WZ16 (Echo 30/WZ16): >125 µg/mL; IC50 (µg/mL) Poliovirus 3 /nOPV3 (Poliovirus 3/nOPV3): >125 µg/mL; IC50 (µg/mL) EV-D68 /BCH895A (EV-D68/BCH895A): 57.56 ± 5.81 µg/mL
